Laboratory results from patent publication US10961231B2, “NTCP inhibitors” (National Institute of Biological Sciences, Beijing, priority 2018, dated 2021).
Read-outs that look alike come from different tables or passages of the source.

Target: T1, NTCP (Homo sapiens, UniProt Q14973)
T1 sequence (Q14973 1-349): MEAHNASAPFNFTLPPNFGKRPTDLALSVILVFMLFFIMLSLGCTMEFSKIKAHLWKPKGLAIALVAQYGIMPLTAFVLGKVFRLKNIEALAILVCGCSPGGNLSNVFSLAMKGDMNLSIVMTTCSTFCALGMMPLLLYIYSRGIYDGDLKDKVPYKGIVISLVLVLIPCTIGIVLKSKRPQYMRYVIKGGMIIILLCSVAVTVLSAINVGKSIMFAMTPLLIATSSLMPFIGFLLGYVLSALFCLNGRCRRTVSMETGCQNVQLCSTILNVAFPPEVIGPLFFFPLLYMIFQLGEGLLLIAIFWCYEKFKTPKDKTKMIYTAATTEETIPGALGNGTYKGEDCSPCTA
Assay: [3H]-TCA uptake assay (NTCP inhibition)
Assay type: cell-based
Outline: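 PTH and HepG2-NTCP cells kept 24 h in PMM to induce NTCP, then exposed 2 h to test compounds or DMSO. Uptake of 1 μM [3H]-taurocholate in Na+ Ringer's buffer (145 mM Na) ran 15 min at 37° C. Cells washed, lysed in 1% Triton X-100, and radioactivity counted by liquid scintillation.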

[1] = IC50, given as a range, assay not given
[2] = given as a range, assay not given
[3] = given as a range, marked * (asterisk not explained)
[4] = IC50, given as a range, marked * (asterisk not explained)

CCC1NC(=O)C(C2OC(OCc3ccc(N4CCOCC4)cc3)CC2C)N(C)C(=O)C(C(C)C)N(C)C(=O)C(CC(C)C)N(C)C(=O)C(CC(C)C)N(C)C(=O)C(C)NC(=O)C(C)NC(=O)C(CC(C)C)N(C)C(=O)C(C(C)C)NC(=O)C(CC(C)C)N(C)C(=O)CN(C)C1=O [Compound 99A, [2-((2R,3R)-3-methyl-5-(4-morpholinobenzyloxy)tetrahydrofuran-2-yl)-2-(methylamino)acetic acid]^1-cyclosporin A]
IC50 [1]: 1 to 10 µM

CCC1NC(=O)C(C2OC(OCc3cccc(Cl)c3OC)CC2C)N(C)C(=O)C(C(C)C)N(C)C(=O)C(CC(C)C)N(C)C(=O)C(CC(C)C)N(C)C(=O)C(C)NC(=O)C(C)NC(=O)C(CC(C)C)N(C)C(=O)C(C(C)C)NC(=O)C(CC(C)C)N(C)C(=O)CN(C)C1=O (single isomer, unassigned) [Compound 88B]
IC50 [2]: 0.001 to 1 µM

CCC1NC(=O)C(C2OC(Oc3cc(Cl)cc(OCc4ccc(F)cc4)c3)CC2C)N(C)C(=O)C(C(C)C)N(C)C(=O)C(CC(C)C)N(C)C(=O)C(CC(C)C)N(C)C(=O)C(C)NC(=O)C(C)NC(=O)C(CC(C)C)N(C)C(=O)C(C(C)C)NC(=O)C(CC(C)C)N(C)C(=O)CN(C)C1=O (centres unmarked) [Compound 61A-o]
IC50 [3]: 1 to 100 µM

CCC1NC(=O)C(C2OC(OCc3cc(F)c(Cl)cc3Cl)CC2C)N(C)C(=O)C(C(C)C)N(C)C(=O)C(CC(C)C)N(C)C(=O)C(CC(C)C)N(C)C(=O)C(C)NC(=O)C(C)NC(=O)C(CC(C)C)N(C)C(=O)C(C(C)C)NC(=O)C(CC(C)C)N(C)C(=O)CN(C)C1=O (single isomer, unassigned) [Compound 101A]
IC50 [2]: 0.001 to 1 µM

CCC1NC(=O)C(C2OC(Sc3cc(OC)cc(OCC4CCN(C)CC4)c3)CC2C)N(C)C(=O)C(C(C)C)N(C)C(=O)C(CC(C)C)N(C)C(=O)C(CC(C)C)N(C)C(=O)C(C)NC(=O)C(C)NC(=O)C(CC(C)C)N(C)C(=O)C(C(C)C)NC(=O)C(CC(C)C)N(C)C(=O)CN(C)C1=O (centres unmarked) [Compound 70]
IC50 [3]: 1 to 100 µM

CCC1NC(=O)C(C2OC(Sc3ccccc3)CC2C)N(C)C(=O)C(C(C)C)N(C)C(=O)C(CC(C)C)N(C)C(=O)C(CC(C)C)N(C)C(=O)C(C)NC(=O)C(C)NC(=O)C(CC(C)C)N(C)C(=O)C(C(C)C)NC(=O)C(CC(C)C)N(C)C(=O)CN(C)C1=O [Compound 1B, [2-((2R,3R)-3-methyl-5-(phenylthio)tetrahydrofuran-2-yl)-2-(methylamino)acetic acid]^1-cyclosporin A]
IC50 [1]: 1 to 100 µM

CCCOc1cc(SC2CC(C)C(C3C(=O)NC(CC)C(=O)N(C)CC(=O)N(C)C(CC(C)C)C(=O)NC(C(C)C)C(=O)N(C)C(CC(C)C)C(=O)NC(C)C(=O)NC(C)C(=O)N(C)C(CC(C)C)C(=O)N(C)C(CC(C)C)C(=O)N(C)C(C(C)C)C(=O)N3C)O2)ccc1Cl [Compound 42A, [2-((2R,3R)-5-(4-chloro-3-propoxyphenylthio)-3-methyltetrahydrofuran-2-yl)-2-(methylamino)acetic acid]^1-cyclosporin A]
IC50 [2]: 0.001 to 1 µM

CCC1NC(=O)C(C2OC(Sc3cccc(N(C)Cc4ccccc4)c3)CC2C)N(C)C(=O)C(C(C)C)N(C)C(=O)C(CC(C)C)N(C)C(=O)C(CC(C)C)N(C)C(=O)C(C)NC(=O)C(C)NC(=O)C(CC(C)C)N(C)C(=O)C(C(C)C)NC(=O)C(CC(C)C)N(C)C(=O)CN(C)C1=O (centres unmarked) [Compound 68]
IC50 [4]: 1 to 100 µM

CCC1NC(=O)C(C2OC(Oc3cccc(OCc4ccncc4)c3)CC2C)N(C)C(=O)C(C(C)C)N(C)C(=O)C(CC(C)C)N(C)C(=O)C(CC(C)C)N(C)C(=O)C(C)NC(=O)C(C)NC(=O)C(CC(C)C)N(C)C(=O)C(C(C)C)NC(=O)C(CC(C)C)N(C)C(=O)CN(C)C1=O (centres unmarked) [Compound 54A-o]
IC50 [4]: 1 to 100 µM

CCC1NC(=O)C(C2OC(Sc3cccc(OCCC4CCCN4C)c3)CC2C)N(C)C(=O)C(C(C)C)N(C)C(=O)C(CC(C)C)N(C)C(=O)C(CC(C)C)N(C)C(=O)C(C)NC(=O)C(C)NC(=O)C(CC(C)C)N(C)C(=O)C(C(C)C)NC(=O)C(CC(C)C)N(C)C(=O)CN(C)C1=O [Compound 15A, [2-((2R,3R)-3-methyl-5-(3-(2-(1-methylpyrrolidin-2-yl)ethoxy)phenylthio)tetrahydrofuran-2-yl)-2-(methylamino)acetic acid]^1-cyclosporin A]
IC50 [1]: 1 to 10 µM

CCC1NC(=O)C(C2OC(Sc3ccc(CN4CCN(C)CC4)cc3)CC2C)N(C)C(=O)C(C(C)C)N(C)C(=O)C(CC(C)C)N(C)C(=O)C(CC(C)C)N(C)C(=O)C(C)NC(=O)C(C)NC(=O)C(CC(C)C)N(C)C(=O)C(C(C)C)NC(=O)C(CC(C)C)N(C)C(=O)CN(C)C1=O [Compound 7A, [2-((2R,3R)-3-methyl-5-(4-((4-methylpiperazin-1-yl)methyl)phenylthio)tetrahydrofuran-2-yl)-2-(methylamino)acetic acid]^1-cyclosporin A]
IC50 [1]: 1 to 10 µM

CCCOc1cccc(OC2CC(C)C(C3C(=O)NC(CC)C(=O)N(C)CC(=O)N(C)C(CC(C)C)C(=O)NC(C(C)C)C(=O)N(C)C(CC(C)C)C(=O)NC(C)C(=O)NC(C)C(=O)N(C)C(CC(C)C)C(=O)N(C)C(CC(C)C)C(=O)N(C)C(C(C)C)C(=O)N3C)O2)c1 (centres unmarked) [Compound 31A-o]
IC50 [4]: 1 to 100 µM

CCCOc1cc(OC2CC(C)C(C3C(=O)NC(CC)C(=O)N(C)CC(=O)N(C)C(CC(C)C)C(=O)NC(C(C)C)C(=O)N(C)C(CC(C)C)C(=O)NC(C)C(=O)NC(C)C(=O)N(C)C(CC(C)C)C(=O)N(C)C(CC(C)C)C(=O)N(C)C(C(C)C)C(=O)N3C)O2)ccc1Cl (centres unmarked) [Compound 42A-o]
IC50 [4]: 1 to 100 µM

CCC1NC(=O)C(C2OC(Sc3cc(OCCOC)cc(OCc4cccs4)c3)CC2C)N(C)C(=O)C(C(C)C)N(C)C(=O)C(CC(C)C)N(C)C(=O)C(CC(C)C)N(C)C(=O)C(C)NC(=O)C(C)NC(=O)C(CC(C)C)N(C)C(=O)C(C(C)C)NC(=O)C(CC(C)C)N(C)C(=O)CN(C)C1=O (centres unmarked) [Compound 56]
IC50 [3]: 1 to 100 µM

CCC1NC(=O)C(C2OC(Sc3cccc(OCC4CCN(C)CC4)c3)CC2C)N(C)C(=O)C(C(C)C)N(C)C(=O)C(CC(C)C)N(C)C(=O)C(CC(C)C)N(C)C(=O)C(C)NC(=O)C(C)NC(=O)C(CC(C)C)N(C)C(=O)C(C(C)C)NC(=O)C(CC(C)C)N(C)C(=O)CN(C)C1=O (centres unmarked) [Compound 72]
IC50 [4]: 1 to 100 µM

CC[C@@H]1NC(=O)[C@H]([C@@H]2OC(OCc3cc(Cl)cc(Cl)c3)C[C@H]2C)N(C)C(=O)[C@H](C(C)C)N(C)C(=O)[C@H](CC(C)C)N(C)C(=O)[C@H](CC(C)C)N(C)C(=O)[C@@H](C)NC(=O)[C@H](C)NC(=O)[C@H](CC(C)C)N(C)C(=O)[C@H](C(C)C)NC(=O)[C@H](CC(C)C)N(C)C(=O)CN(C)C1=O (stereo partly drawn) [Compound 91A, [2-((2R,3R)-5-(3,5-dichlorobenzyloxy)-3-methyltetrahydrofuran-2-yl)-2-(methylamino)acetic acid]^1-cyclosporin A]
IC50 (given as a range, assay not given, read-out: IC50): 0.001 to 1 µM

CCC1NC(=O)C(C2OC(Sc3cccc(OCC4CCOCC4)c3)CC2C)N(C)C(=O)C(C(C)C)N(C)C(=O)C(CC(C)C)N(C)C(=O)C(CC(C)C)N(C)C(=O)C(C)NC(=O)C(C)NC(=O)C(CC(C)C)N(C)C(=O)C(C(C)C)NC(=O)C(CC(C)C)N(C)C(=O)CN(C)C1=O [Compound 33A, [2-((2R,3R)-3-methyl-5-(3-((tetrahydro-2H-pyran-4-yl)methoxy)phenylthio)tetrahydrofuran-2-yl)-2-(methylamino)acetic acid]^1-cyclosporin A]
IC50 [2]: 0.001 to 1 µM

CCC1NC(=O)C(C2OC(Oc3cccc(OCc4cccc(F)c4)c3)CC2C)N(C)C(=O)C(C(C)C)N(C)C(=O)C(CC(C)C)N(C)C(=O)C(CC(C)C)N(C)C(=O)C(C)NC(=O)C(C)NC(=O)C(CC(C)C)N(C)C(=O)C(C(C)C)NC(=O)C(CC(C)C)N(C)C(=O)CN(C)C1=O (centres unmarked) [Compound 20A-o]
IC50 [4]: 1 to 100 µM

CCC1NC(=O)C(C2OC(OCc3c(Cl)cccc3Cl)CC2C)N(C)C(=O)C(C(C)C)N(C)C(=O)C(CC(C)C)N(C)C(=O)C(CC(C)C)N(C)C(=O)C(C)NC(=O)C(C)NC(=O)C(CC(C)C)N(C)C(=O)C(C(C)C)NC(=O)C(CC(C)C)N(C)C(=O)CN(C)C1=O (single isomer, unassigned) [Compound 90A]
IC50 [2]: 0.001 to 1 µM

CCC1NC(=O)C(C2OC(Oc3ccc(CN4CCN(C)CC4)cc3)CC2C)N(C)C(=O)C(C(C)C)N(C)C(=O)C(CC(C)C)N(C)C(=O)C(CC(C)C)N(C)C(=O)C(C)NC(=O)C(C)NC(=O)C(CC(C)C)N(C)C(=O)C(C(C)C)NC(=O)C(CC(C)C)N(C)C(=O)CN(C)C1=O (centres unmarked) [Compound 7A-o]
IC50 [4]: 1 to 100 µM

CCC1NC(=O)C(C2OC(Sc3cc(OCCOC)cc(OCCOC)c3)CC2C)N(C)C(=O)C(C(C)C)N(C)C(=O)C(CC(C)C)N(C)C(=O)C(CC(C)C)N(C)C(=O)C(C)NC(=O)C(C)NC(=O)C(CC(C)C)N(C)C(=O)C(C(C)C)NC(=O)C(CC(C)C)N(C)C(=O)CN(C)C1=O (centres unmarked) [Compound 73]
IC50 [3]: 1 to 100 µM

CCC1NC(=O)C(C2OC(Oc3cccc(OCc4ccccc4)c3)CC2C)N(C)C(=O)C(C(C)C)N(C)C(=O)C(CC(C)C)N(C)C(=O)C(CC(C)C)N(C)C(=O)C(C)NC(=O)C(C)NC(=O)C(CC(C)C)N(C)C(=O)C(C(C)C)NC(=O)C(CC(C)C)N(C)C(=O)CN(C)C1=O (single isomer, unassigned) [Compound 12A-o]
IC50 [2]: 0.001 to 1 µM

CCC1NC(=O)C(C2OC(Oc3cccc(OCc4ccc(-n5cccn5)cc4)c3)CC2C)N(C)C(=O)C(C(C)C)N(C)C(=O)C(CC(C)C)N(C)C(=O)C(CC(C)C)N(C)C(=O)C(C)NC(=O)C(C)NC(=O)C(CC(C)C)N(C)C(=O)C(C(C)C)NC(=O)C(CC(C)C)N(C)C(=O)CN(C)C1=O (centres unmarked) [Compound 17A-o]
IC50 [3]: 1 to 100 µM
